Results on 16 molecules are retold here after patent publication US10618898B2, “Hydroxyl purine compounds and use thereof” (GUANGDONG RAYNOVENT BIOTECH CO., LTD., priority 2015, dated 2020).

As a reminder, the inhibition is how much of the control response was suppressed.

The structures appear in SMILES notation. Where only a bound is given, the exact number is not on record here.

T1 sequence (O00408 whole entry): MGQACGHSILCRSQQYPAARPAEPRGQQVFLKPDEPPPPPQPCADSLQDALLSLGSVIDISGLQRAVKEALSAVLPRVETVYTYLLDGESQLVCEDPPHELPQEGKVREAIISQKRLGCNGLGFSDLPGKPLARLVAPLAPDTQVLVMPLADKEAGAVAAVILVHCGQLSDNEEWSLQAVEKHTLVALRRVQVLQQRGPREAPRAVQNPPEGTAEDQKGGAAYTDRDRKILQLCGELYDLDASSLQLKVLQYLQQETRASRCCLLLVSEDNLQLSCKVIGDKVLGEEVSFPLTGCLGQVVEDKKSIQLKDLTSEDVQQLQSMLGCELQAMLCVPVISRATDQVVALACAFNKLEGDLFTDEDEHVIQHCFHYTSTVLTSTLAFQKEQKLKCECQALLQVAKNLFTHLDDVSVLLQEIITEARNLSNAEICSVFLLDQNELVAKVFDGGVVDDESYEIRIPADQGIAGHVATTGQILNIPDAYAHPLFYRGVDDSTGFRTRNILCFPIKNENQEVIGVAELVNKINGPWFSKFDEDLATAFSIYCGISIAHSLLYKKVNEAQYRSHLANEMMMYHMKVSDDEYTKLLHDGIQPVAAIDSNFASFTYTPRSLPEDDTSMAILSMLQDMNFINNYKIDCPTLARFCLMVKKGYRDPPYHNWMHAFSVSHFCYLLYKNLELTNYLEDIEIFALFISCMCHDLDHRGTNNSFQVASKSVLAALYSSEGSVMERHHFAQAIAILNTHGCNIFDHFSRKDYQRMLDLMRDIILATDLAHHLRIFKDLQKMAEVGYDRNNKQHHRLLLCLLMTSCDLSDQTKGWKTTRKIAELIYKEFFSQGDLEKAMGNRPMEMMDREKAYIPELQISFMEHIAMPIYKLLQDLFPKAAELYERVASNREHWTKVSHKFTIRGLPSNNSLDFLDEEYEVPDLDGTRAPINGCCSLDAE

The first assay addresses T1, Recombinant full-length human PDE2A protein (Homo sapiens, UniProt O00408).
T1 construct: Recombinant full-length human PDE2A protein; GST (N); host or cells: insect Sf9 cells (baculovirus)
The experiment in a line: In vitro PDE2 phosphodiesterase inhibitory activity (fluorescence polarization, Transcreener AMP2/GMP2).
Conditions: not given
Type of assay: biochemical. On the procedure: Experiment Objective: Determining the concentration of AMP/GMP produced in the reaction system by way of detecting the AlexaFluor 633 fluorescent dye substituted on AMP/GMP antibody by fluorescence polarization assay, and thereby to calculate the IC50 value of PDE2 phosphodiesterase inhibition by the test compound. Experimental Materials: Detecting buffer solution: 10 mM Tris-HCl, pH 7.5, 5 mM MgCl2, 0.01% Brij 35, 1 mM DTT, and 1% DMSO. Enzyme: Recombinant full-length human PDE2A protein with an N-terminal GST-tag expressed in insect Sf9 cells by baculovirus Substrate: 1 μM cGMP Detection System: Transcreener® AMP^2/GMP^2 antibody, AMP2/GMP2 AlexaFluor 633 fluorescent dye Experimental Operation:
The enzyme solution was prepared by using the freshly prepared buffer solution, and then was added into the reaction wells. The DMSO solution of the test compound was added via Echo550, a nanoliter-scale contactless acoustic liquid transferring system, and then pre-incubated at room temperature for 10 minutes. The substrate (1 μLM cGMP) was added to initiate the reaction at room temperature for one hour. The detection system (Transcreener® AMP^2/GMP^2 antibody, AMP2/GMP2 AlexaFluor 633 fluorescent dye) was then added, and the reaction was conducted at room temperature for 90 minutes. Fluorescence polarization was then detected by using Ex/Em 620/688.
The intensity of fluorescence polarization was converted to nM concentration by the AMP/GMP standard curve, and then calculate the relative enzyme activity inhibition relative to the DMSO blank. The IC50 values and curves were calculated by using the Prism software package (GraphPad Software, San Diego Calif., USA)
Background: Fluorescence polarisation rises when a labelled molecule tumbles more slowly, as on binding a larger partner.
Take `Cn1cnc2c1c(=O)n(CC1(C)COC1)c(=O)n2C` [Example 3, 3,7-Dimethyl-1-((3-methyloxetan-3-yl)methyl)-1H-purin-2,6(3H, 7H)-dione]: the IC50 fell in the range of 10 to 50 µM.

The assay is the same for the next values; noted with them: human PDE2A, substrate 1 μM cGMP, fluorescence polarization; read-out: PDE2 phosphodiesterase inhibitory activity.
Take `Cn1c(=O)n(CC2(C)COC2)c(=O)c2c1cnn2CC1CC1` [Example 33, 1-(Cyclopropylmethyl)-4-methyl-6-((3-methyloxetan-3-yl)methyl)-pyrazolo[4,3-d]pyrimidin-5,7-dione]: the IC50 lay within 10 to 50 µM.

As to `CCC1OCC1CCn1c(=O)c2c(ncn2C)n(C)c1=O` (centres unmarked) [Example 5, 1-(2-(2-Ethyloxetan-3-yl)ethyl)-3,7-dimethyl-1H-purin-2,6(3H,7H)-dione], the IC50 was in the range of 10 to 50 µM. On the same count and under the same terms, under `C[C@@H]1CC(CCn2c(=O)c3c(ncn3CC(F)(F)F)n(C)c2=O)C[C@@H](C)O1` (stereo partly drawn) [Example 20, 1-(2-((2R,6R)-2,6-dimethyltetrahydro-2H-pyran-4-yl)ethyl)-3-methyl-7-(2,2,2-trifluoroethyl)-1H-purin-2,6 (3H,7H)-dione] stands 10 to 50 µM; under `CCC1COCCC1CCn1c(=O)c2c(ncn2C)n(C)c1=O` (centres unmarked) [Example 15, 1-(2-(3-Ethyltetrahydro-2H-pyran-4-yl)ethyl)-3,7-dimethyl-1H-purin-2,6-(3H,7H)-dione], 10 to 50 µM; under `CCC1(Cn2c(=O)c3c(ncn3C)n(C)c2=O)COC1` [Example 4, 1-((3-Ethyloxetan-3-yl)methyl)3,7-dimethyl-1H-purin-2,6(3H,7H)-dione], 10 to 50 µM.

`Cn1cnc2c1c(=O)n(CC1(C)CCOCC1)c(=O)n2C` [Example 11 Isomer 1, 3,7-Dimethyl-1-((4-methyltetrahydro-2H-pyran-4-yl)methyl)-1H-purin-2,6-(3H,7H)-dione]: the IC50 lay within 10 to 50 µM.

On to `CC(C)Cn1cnc2c1c(=O)n(CCC1C[C@@H](C)O[C@H](C)C1)c(=O)n2C` (stereo partly drawn) [Example 26, 1-(2-((2R,6R)-2,6-dimethyltetrahydro-2H-pyran-4-yl)ethyl)-7-isobutyl-3-methyl-1H-purin-2,6(3H, 7H)-dione], for which the IC50 was in the range of 10 to 50 µM. On the same count and under the same terms, under `CCC1CC(CCn2c(=O)c3c(ncn3C)n(C)c2=O)CCO1` (centres unmarked) [Example 16] stands 10 to 50 µM; under `C[C@@H]1CC(CCn2c(=O)c3c(ncn3CC3CC3)n(C)c2=O)C[C@@H](C)O1` (some centres unmarked) [Example 23], 10 to 50 µM; under `C[C@H]1CC(CCn2c(=O)c3c(ncn3C)n(C)c2=O)C[C@H](C)O1` (stereo partly drawn) [Example 14, 1-[2-((2S,6S)-2,6-dimethyltetrahydro-2H-pyran-4-yl)-ethyl]-3,7-dimethyl-1H-2,6(3H,7H)-dione], 10 to 50 µM. The same measure, in the same setting: as for `CCC1(Cn2c(=O)c3c(ncn3C)n(C)c2=O)CCOCC1` [Example 12 Isomer 1, 1-((4-Ethyltetrahydro-2H-pyran-4-yl)methyl)-3,7-dimethyl-1H-purin-2,6-(3H,7H)-dione], the figure is 10 to 50 µM; as for `CC(C)n1cnc2c1c(=O)n(CCC1C[C@@H](C)O[C@H](C)C1)c(=O)n2C` (stereo partly drawn) [Example 21, 1-(2-((2R,6R)-2,6-dimethyltetrahydro-2H-pyran-4-yl)ethyl)yl-7-isopropyl-3-methyl-1H-purin-2,6(3H,7H)-dione], 10 to 50 µM. The same measure, in the same setting: under `COC1CCC(Cn2c(=O)c3c(ncn3C)n(C)c2=O)CC1` (centres unmarked) [Example 18, 1((-4-Methoxycyclohexyl)methyl)-3,7-dimethyl-1H-purin-2,6-(3H,7H)-dione] stands 10 to 50 µM; under `CCC1(CCn2c(=O)c3c(ncn3C)n(C)c2=O)CCOC1` (single isomer, unassigned) [Example 12 Isomer 2, 1-(2-(3-Ethyltetrahydro-furan-3-yl)ethyl)-3,7-dimethyl-1H-purin-2,6-(3H,7H)-dione], 10 to 50 µM.

Another assay has as its system TNF-α. The experiment in a line: In vitro induction of TNF-α in rat blood by LPS (ELISA). It is filed as cell-based. The following applies: test compound final concentration 100 μM, 5 hours, read-out: Rate of TNFα inhibition. As to the method:
Experiment Objective: Determining the impact of the compounds on induction of TNF-α in rat blood by LPS in vitro, and evaluating the effect of the compounds on inhibiting induction of TNF-α in rat blood by LPS.
Sprague Dawley rats (male, 210-260 g, 8-10 weeks old, Shanghai SLAC)
Rat TNF-alpha Quantikine ELISA Kit (R&D, # SRTA00)
The test compound solutions were prepared at a concentration of 1 mM. 40 μl of each of the solutions was added into a 48-well cell culture plate (at the final concentration of 100 μM). After the rat was anesthetized with isoflurane, the blood was collected from the heart (heparin for anticoagulation). The blood was added into the 48-well plate containing the test compound, in the amount of 320 μL per well. The 48-well plate was placed into a cell incubator, and then taken out after 30 minutes of incubation. Then, 40 μL of LPS solution (100 μg/ml) was added and mixed. The 48-well plate was placed into the incubator for further incubation. After 5 hours, the 48-well plate was taken out and the blood sample was transferred to a 1.5 mL centrifuge tube, followed by centrifugation in a centrifuge (4,500 rpm, 4° C., 5 minutes). The supernatant was separated and the plasma was obtained. […] In the next day, the TNF-α level of the plasma samples was determined by using the R&D ELISA kit in accordance with the instructions.
(ELISA stands for enzyme-linked immunosorbent assay.)
As for `Cn1cnc2c1c(=O)n(CC1(C)COC1)c(=O)n2C` [Example 3, 3,7-Dimethyl-1-((3-methyloxetan-3-yl)methyl)-1H-purin-2,6(3H, 7H)-dione], the inhibition at 100 µM was in the range of 60 to 80%.

Turning to `Cn1cnc2c1c(=O)n(CCN1CCOCC1)c(=O)n2C` [Example 17, 3,7-Dimethyl-1-(2-morpholinoethyl)-purin-2,6-dione], the inhibition at 100 µM was less than 60%.
